From patent US20260240873A1, “USE OF C[…] THE TREATMENT OF TUBEROUS SCLEROSIS COMPLEX” (GW Research Limited, priority 2019, published 2026)

Legend:
[1] = Double-blind, randomized, placebo-controlled trial: Subject/Caregiver Global Impression of Change; type: in vivo, human; settings: for Subject/caregiver global impression of change: Much improved, number (%) / Subject/caregiver global impression of change: Much worse, number (%) / Subject/caregiver global impression of change: No change, number (%) / Subject/caregiver global impression of change: Slightly improved, number (%) / Subject/caregiver global impression of change: Slightly worse, number (%) / Subject/caregiver global impression of change: Very much worse, number (%) / Subject/caregiver global impression of change: Very much improved, number (%): data from last visit
Description: (§1) The blinded phase of the study was a randomized, double-blind, parallel-group, 16-week comparison of two doses of CBD versus placebo. Patients completed a 1-week screening period and a 4-week baseline period before they were randomized to receive 25 mg/kg/day CBD, 50 mg/kg/day CBD or equivalent volumes of placebo. Randomization was stratified by age according to the following ranges: 1-6, 7-11, 12-17 years and 18+ years.
(§2) change in Caregiver Global Impression of Change (CGIC) or Subject Global Impression of Change (SGIC) score; and change in total seizures.

seizures [2] = settings: mice; after pro-convulsant drugs or an electric current; cited from earlier work
seizures [3] = settings: 200 mg/day pure CBD; twelve institutionalized adult patients; open label; cited from earlier work
generalized epilepsy = settings: eight adult patients with generalized epilepsy; cited from earlier work
[4] = Double-blind, randomized, placebo-controlled trial: safety and tolerability (adverse events, ALT); type: in vivo, human; settings: for Patients with alanine aminotransferase (ALT) elevations >3 upper level of normal (ULN): none on placebo
Description: as §1
Safety and tolerability measures that were recorded included: adverse events; clinical laboratory parameters; 12-lead electrocardiogram (ECG); physical examination parameters (including height and weight); vital signs; Columbia-Suicide Severity Rating Scale (C-SSRS; 19+ years) or C-SSRS Children's (6-18 years) score, where applicable; number of inpatient hospitalizations due to epilepsy; abuse liability and effects on menstruation cycles (in females).

TSC-associated seizures = assay: Double-blind, randomized, placebo-controlled trial: TSC-associated seizure frequency; type: in vivo, human; settings: for Mean number of TSC-associated seizures per 28 days, treatment period: 16-week treatment period, add-on to AEDs; for Mean number of TSC-associated seizures per 28 days, baseline period: 4-week baseline before treatment; for Reduction in TSC-associated seizures over the maintenance period: 12-week maintenance period, placebo 30%; for Patients who experienced a ≥50% reduction in seizures, number (%): placebo 17 (22.4%); for TSC-associated seizures, estimated ratio CBD/Placebo / TSC-associated seizures, percentage reduction CBD/Placebo: treatment period
Description: as §1
(§3) Patients began a 4-week dose escalation period, titrating up to their assigned dose, before continuing on a stable dose of blinded investigational medicinal product (IMP) for 12 weeks.
(§4) Patients were required to perform daily interactive voice response system (IVRS) telephone calls to record seizure information. They were also required to complete a paper diary daily with information about IMP and concomitant AED administration.
The primary endpoint was the change in number of TSC-associated seizures during the treatment period (maintenance and titration) compared to baseline in patients taking CBD compared with placebo.
(§5) TSC-associated seizures included: focal motor seizures without impairment of consciousness or awareness; focal seizures with impairment of consciousness or awareness; focal seizures evolving to bilateral generalized convulsive seizures and generalized seizures (tonic-clonic, tonic, clonic or atonic) that are countable.
Secondary endpoints included the number of patients considered treatment responders which was defined as those with a >50% reduction in TSC-associated seizure frequency;
Antiepileptic efficacy measures were also determined and these included: number of patients considered treatment responders defined as those with a ≥25%, ≥50%, ≥75% or 100% reduction in TSC-associated seizure frequency; number of patients experiencing a >25% worsening, −25 to +25% no change, 25-50% improvement, 50-75% improvement or >75% improvement in TSC-associated seizure frequency; change in number of TSC-associated seizure-free days; and change in number of ‘other’ seizures (absence, myoclonic, focal sensory and infantile/epileptic spasms).

total seizures = assay: Double-blind, randomized, placebo-controlled trial: total seizure count; type: in vivo, human; settings: for Total seizure count, mean number of seizures per 28 days, treatment period: 16-week treatment period; for Total seizure count, mean number of seizures per 28 days, baseline period: baseline before treatment; for Reduction of seizures over the maintenance period (paragraph after the total seizure tables): 12-week maintenance period, placebo 30.1%
Description: as §1, §3, §4, §2
as §5, with “In addition to the TSC-associated” for “TSC-associated”, “(focal” for “included: focal”, “countable) the total seizure count was recorded in the trial.” for “countable.”

seizures [5] = settings: 200 mg/day pure CBD; four adult patients; cited from earlier work
[6] = CBD 25 mg/kg/day group (n = 75)
[7] = CBD 25 mg/kg/day, p-value 0.0009
[8] = CBD 50 mg/kg/day group (n = 73)
[9] = CBD 50 mg/kg/day, p-value 0.0018
[10] = CBD 50 mg/kg/day, treatment period, p-value 0.0018

In the case of `C=C(C)[C@@H]1CCC(C)=C[C@H]1c1c(O)cc(CCCCC)cc1O` [CBD, cannabidiol], the “Subject/caregiver's global impression of change (conclusion)” value ([1]; 25 mg/kg/day group) is reported as “significant efficacy”, the “Subject/caregiver global impression of change: Much improved, number (%)” value ([1]; CBD 25 mg/kg/day) is reported as 12 (18.2%) and the “Subject/caregiver global impression of change: Much worse, number (%)” value ([1]; CBD 25 mg/kg/day) is reported as 2 (3.0%). The “Subject/caregiver global impression of change: No change, number (%)” value ([1]; CBD 25 mg/kg/day) was 14 (21.2%), the “Subject/caregiver global impression of change: Slightly improved, number (%)” value ([1]; CBD 25 mg/kg/day) was 23 (34.8%) and the “Subject/caregiver global impression of change: Slightly worse, number (%)” value ([1]; CBD 25 mg/kg/day) was 4 (6.1%). The “Subject/caregiver global impression of change: Very much worse, number (%)” value ([1]; CBD 25 mg/kg/day) was 1 (1.5%), the “Subject/caregiver global impression of change: Very much improved, number (%)” value ([1]; CBD 25 mg/kg/day, overall p-value 0.0074) was 10 (15.2%) and the “Subject/caregiver global impression of change: Much improved, number (%)” value ([1]; CBD 50 mg/kg/day) was 12 (18.2%). For the same compound, the “Subject/caregiver global impression of change: Much worse, number (%)” value ([1]; CBD 50 mg/kg/day) was 3 (4.5%), the “Subject/caregiver global impression of change: No change, number (%)” value ([1]; CBD 50 mg/kg/day) was 14 (21.2%) and the “Subject/caregiver global impression of change: Slightly improved, number (%)” value ([1]; CBD 50 mg/kg/day) was 21 (31.8%). For the same compound, the “Subject/caregiver global impression of change: Slightly worse, number (%)” value ([1]; CBD 50 mg/kg/day) was 6 (9.1%), the “Subject/caregiver global impression of change: Very much worse, number (%)” value ([1]; CBD 50 mg/kg/day) was 1 (1.5%) and the “Subject/caregiver global impression of change: Very much improved, number (%)” value ([1]; CBD 50 mg/kg/day, overall p-value 0.0580) was 9 (13.6%). For the same compound, the Prevention of seizures (seizures [2]) was “able to prevent seizures”, the Control of seizures (seizures [3]) was “ineffective” and the Reduction of seizures (generalized epilepsy) was “marked reduction of seizures in 4 of the patients”. The “Incidence of diarrhoea, vomiting, transaminase elevations, somnolence, and rash” value ([4]; 50 mg/kg/day group compared to 25 mg/kg/day group) was “higher in the 50 mg/kg/day group”, the “Treatment emergent adverse event, maximal severity Mild, number (%)” value ([4]; CBD 25 mg/kg/day (n = 75)) was 37 (49.3%) and the “Treatment emergent adverse event, maximal severity Moderate, number (%)” value ([4]; CBD 25 mg/kg/day (n = 75)) was 26 (34.7%). The “Treatment emergent adverse event, maximal severity Severe, number (%)” value ([4]; CBD 25 mg/kg/day (n = 75)) was 7 (9.3%), the “Patients with alanine aminotransferase (ALT) elevations >3 upper level of normal (ULN)” value ([4]; CBD 25 mg/kg/day) was 12% and the “Treatment emergent adverse event, maximal severity Mild, number (%)” value ([4]; CBD 50 mg/kg/day (n = 73)) was 29 (39.7%). The “Treatment emergent adverse event, maximal severity Moderate, number (%)” value ([4]; CBD 50 mg/kg/day (n = 73)) was 35 (47.9%), the “Treatment emergent adverse event, maximal severity Severe, number (%)” value ([4]; CBD 50 mg/kg/day (n = 73)) was 9 (12.3%) and the “Patients with alanine aminotransferase (ALT) elevations >3 upper level of normal (ULN)” value ([4]; CBD 50 mg/kg/day) was 25%. The “Rate of ALT elevations” value ([4]; patients on concomitant valproic acid and on the higher dose of CBD) was “higher rate of ALT elevations”, the “Most common adverse reactions (≥10% and greater than placebo)” value ([4]; patients receiving CBD, 25 or 50 mg/kg/day) was “somnolence; decreased appetite; diarrhoea; vomiting; transaminase elevations; pyrexia; and infections” and the “Patients with complete seizure freedom (100% reduction in TSC-associated seizure frequency)” value (TSC-associated seizures; CBD 25 mg/kg/day) was 4 patients. For the same compound, the “TSC-associated seizures, estimated ratio Treatment period/Baseline period” value (TSC-associated seizures; CBD 25 mg/kg/day (n = 75)) was 0.514, the “TSC-associated seizures, percentage reduction Treatment period/Baseline period” value (TSC-associated seizures; CBD 25 mg/kg/day (n = 75)) was 48.6% and the “Mean number of TSC-associated seizures per 28 days, treatment period” value (TSC-associated seizures; CBD 25 mg/kg/day (n = 75)) was 26.5 per 28 days. For the same compound, the “Mean number of TSC-associated seizures per 28 days, baseline period” value (TSC-associated seizures; [6]) was 51.6 per 28 days, the “Reduction in TSC-associated seizures over the maintenance period” value (TSC-associated seizures; CBD 25 mg/kg/day, p=0.0004) was 55.8% and the “Patients who experienced a ≥50% reduction in seizures, number (%)” value (TSC-associated seizures; CBD 25 mg/kg/day, p=0.0692) was 27 (36.0%) patients. The “TSC-associated seizures, estimated ratio CBD/Placebo” value (TSC-associated seizures; [7]) was 0.699, the “TSC-associated seizures, percentage reduction CBD/Placebo” value (TSC-associated seizures; [7]) was 30.1% and the “Patients with complete seizure freedom (100% reduction in TSC-associated seizure frequency)” value (TSC-associated seizures; CBD 50 mg/kg/day) was 2 patients. The “TSC-associated seizures, estimated ratio Treatment period/Baseline period” value (TSC-associated seizures; CBD 50 mg/kg/day (n = 73)) was 0.525, the “TSC-associated seizures, percentage reduction Treatment period/Baseline period” value (TSC-associated seizures; CBD 50 mg/kg/day (n = 73)) was 47.5% and the “Mean number of TSC-associated seizures per 28 days, treatment period” value (TSC-associated seizures; CBD 50 mg/kg/day (n = 73)) was 34.9 per 28 days. For the same compound, the “Mean number of TSC-associated seizures per 28 days, baseline period” value (TSC-associated seizures; [8]) was 66.3 per 28 days, the “Reduction in TSC-associated seizures over the maintenance period” value (TSC-associated seizures; CBD 50 mg/kg/day, p=0.0005) was 55.8% and the “Patients who experienced a ≥50% reduction in seizures, number (%)” value (TSC-associated seizures; CBD 50 mg/kg/day, p=0.0245) was 29 (39.2%) patients. The “TSC-associated seizures, estimated ratio CBD/Placebo” value (TSC-associated seizures; [9]) was 0.715, the “TSC-associated seizures, percentage reduction CBD/Placebo” value (TSC-associated seizures; [9]) was 28.5% and the “Number of TSC-associated seizures (conclusion)” value (TSC-associated seizures; both 25 and 50 mg/kg/day) was “significantly reduce”. For the same compound, the “Total seizures, estimated ratio Treatment period/Baseline period” value (total seizures; CBD 25 mg/kg/day (n = 75)) was 0.519, the “Total seizures, percentage reduction Treatment period/Baseline period” value (total seizures; CBD 25 mg/kg/day (n = 75)) was 48.1% and the “Total seizure count, mean number of seizures per 28 days, treatment period” value (total seizures; CBD 25 mg/kg/day (n = 75)) was 28.0 per 28 days. For the same compound, the “Total seizure count, mean number of seizures per 28 days, baseline period” value (total seizures; [6]) was 53.9 per 28 days, the “Reduction of seizures over the maintenance period (paragraph after the total seizure tables)” value (total seizures; CBD 25 mg/kg/day, p=0.0007) was 55% and the “Total seizures, estimated ratio CBD/Placebo” value (total seizures; CBD 25 mg/kg/day, treatment period, p-value 0.0013) was 0.709. For the same compound, the “Total seizures, estimated ratio Treatment period/Baseline period” value (total seizures; CBD 50 mg/kg/day (n = 73)) was 0.524, the “Total seizures, percentage reduction Treatment period/Baseline period” value (total seizures; CBD 50 mg/kg/day (n = 73)) was 47.6% and the “Total seizure count, mean number of seizures per 28 days, treatment period” value (total seizures; CBD 50 mg/kg/day (n = 73)) was 39.6 per 28 days. The “Total seizure count, mean number of seizures per 28 days, baseline period” value (total seizures; [8]) was 75.7 per 28 days, the “Reduction of seizures over the maintenance period (paragraph after the total seizure tables)” value (total seizures; CBD 50 mg/kg/day, p=0.0005) was 55.9% and the “Total seizures, estimated ratio CBD/Placebo” value (total seizures; [10]) was 0.716. For the same compound, the “Total seizures, percentage reduction CBD/Placebo” value (total seizures; [10]) was 28.4%, the “Total number of seizures (conclusion)” value (total seizures; both 25 and 50 mg/kg/day) was “significantly reduce” and the Seizure freedom (seizures [5]) was “two of the four patients became seizure free”.
